# Laboratory results reported in US6620953B1, “Method for producing monoaryloxy-ansa-metallocenes” (Bassell Polyolefine GmbH, priority 1998, dated 2003).
# Legend:
# [1] = Solubility comparison in toluene at room temperature; type: physicochemical; settings: 50 mg in toluene at room temperature
# [2] = Propylene polymerization with supported metallocene/MAO/SiO2 catalyst; settings: metallocene 0.047 mmol in 30% MAO/toluene (Al/Zr=215) on SiO2; liquid propylene, 60° C., one hour
# Experimental: (§1) 35.1 mg (0.047 mmol) of (3) were stirred in 2.1 ml of 30% strength MAO solution in toluene (Al/Zr=215) for 60 minutes at room temperature. 2 g of SiO2 (Grace XPO2107, pretreated at 140° C., 10 mbar, 10 hours) were subsequently added and the mixture was stirred for another 10 minutes. The solvent was removed in an oil pump vacuum.
# A dry 2 l reactor was flushed firstly with nitrogen and subsequently propylene and charged with 1.5 l of liquid propylene. 2 ml of TEA (20% strength in Varsol) were added and the mixture was stirred for 15 minutes. The catalyst system prepared above (0.886 g) was then resuspended in 20 ml of heptane and injected into reactor and rinsed in using 15 ml of heptane. The reaction mixture was heated to the polymerization temperature of 60° C. and polymerization was carried out for one hour. The polymerization was stopped by venting the remaining propylene. The polymer was dried in a vacuum drying oven. This gave 470 g of polypropylene powder. […] The catalyst activity was 0.53 kg of PP/g of catalyst x h.
# as §1, with “27.1” for “35.1”, “dimethylsilanediylbis(2-methyl-4,5-benzoindenyl)zirconium dichloride” for “(3)”, “The solvent was removed in an oil pump vacuum.” left out
SMILES,solubility [1],catalyst activity [2]
Cc1cc2ccccc2[c-]1[Si](C)(C)[c-]1c(C)cc2ccccc21.[Cl-].[Cl-].[Zr+4] (racemic) [Rac-Dimethylsilanediylbis(2-methylindenyl)-zirconium Dichloride],about 2.1 mmol/l,–
"CC1=Cc2c(ccc3ccccc23)[C]12[Si](C)(C)[C]1(C(C)=Cc3c1ccc1ccccc31)[Zr]2([Cl])[O]c1ccc(C(C)(C)C)cc1C(C)(C)C (stereo not drawn) [compound 3, Pseudo-rac-Dimethylsilanediylbis(2-methyl-4,5-benzo-indenyl)zirconium Monochloride Mono(2,4-di-tert-butylphenoxide)]",> 13 mM,0.53 kg of PP/g of catalyst x h
"CC1=Cc2ccccc2[C]12[Si](C)(C)[C]1(C(C)=Cc3ccccc31)[Zr]2([Cl])[O]c1ccc(C(C)(C)C)cc1C(C)(C)C (stereo not drawn) [compound 4, Pseudo-rac-Dimethylsilanediylbis(2-methylindenyl)-zirconium Monochloride Mono(2,4-di-tert-butylphenoxide)]",> 15 mM,–
"CC1=Cc2c(ccc3ccccc23)[C]12[Si](C)(C)[C]1(C(C)=Cc3c1ccc1ccccc31)[Zr]2([Cl])[Cl] (stereo not drawn) [Rac-Dimethylsilanediylbis(2-methyl-4,5-benzoindenyl)zirconium Dichloride]",about 0.36 mmol/l,0.46 kg of PP/g of catalyst x h
